These results are taken from patent US20240252461A1, “COMPOSITIONS AND METHODS FOR TREATMENT OF DEMYELINATION” (priority 2018, published 2024).

The nature of series [1]: Blood-brain barrier penetration: DFO concentration in rat brain after IP injection. Type of series: in vivo. The conditions noted are these: for fraction of DFO that infiltrated the brain / DFO (mg/g organ) / DFO (mg/whole organ): SD rats; for fraction of DFO that infiltrated the brain: 90 min; for DFO (mg/g organ): brain; for DFO (mg/whole organ): whole brain. As to the method: In this study, the ability of the Zn-DFO complex to infiltrate into the brain was examined. Rats were injected intraperitoneally (IP) with increasing amounts of DFO alone or Zn-DFO complex, and the concentration of DFO was measured in their brains, thus monitoring their infiltrability.
(§1) In particular, male Sprague-Dawley (SD) rats (300 g average body weight, 3 animals per group) were injected IP with DFO (250, 500, or 1000 mg/kg body weight). For comparison, Zn-DFO solution in freshly prepared saline was injected IP (250, 500, or 1000 mg/kg body weight, which are equivalent to 221, 442, or 883 mg DFO/kg body weight, respectively).
(§2) The behavior of the rats was monitored for 90 min following the injection. Then, the animals were euthanized using an injection of ketamine-xylazine, and their hearts, livers, left kidneys, and brains were excised and weighted. Brain samples (300 mg tissue) were washed homogenized in 3 ml Lysis buffer. Tissue homogenates were incubated at 110° C. for 5 min and centrifuged for 5 min at 14,500 relative centrifugal force (RCF). An equal volume of 40% trichloroacetic acid (TCA) solution was added, forming a solution containing 20% TCA, which was vortexed and centrifuged again. The supernatants were transferred into cuvettes, and DFO concentration was spectrophotometrically measured, after addition of 10 mM of ferric iron solution (as a weak complex of iron, ferric-nitrilo-triacetate, at pH=7.4), and scanning the range of λ=380−580 nm. The final concentration was calculated according to the Beer-Lambert law, using εDFO=2460 M^−1cm^−1: the total amount of DFO per gram tissue and per whole brain were calculated.

A short description of series [2]: Behavior of rats monitored for 90 min following IP injection. Type of series: in vivo, rat. Particulars: the three doses (250, 500, 1000 mg/kg IP). As to the method:
as §1, §2

In a further series the test system is MS. Particulars: cited from earlier work.
The test system of series [3] is Experimental Autoimmune Encephalomyelitis (EAE) model. Description: Murine Experimental Autoimmune Encephalomyelitis (EAE) model of multiple sclerosis. Type of series: in vivo, C57BL/6 mice. Particulars: glatiramer acetate 200 μg SC on day 0, alone. As to the method:
In this study, the therapeutic effect of treatment with glatiramer acetate (Copaxone®) alone or in combination with Zn-DFO on multiple sclerosis (MS) is tested, using the murine Experimental Autoimmune Encephalomyelitis (EAE) model.
EAE is induced in 8-week-old female C57BL/6 mice by subcutaneous (SC) injection of 125 μg of myelin oligodendrocyte glycoprotein 35-55 peptide (MOG35-55) emulsified in complete Freund's adjuvant (CFA) containing 5 mg/ml heat-killed Mycobacterium tuberculosis into the left para-lumbar region. Immediately thereafter, and again at 48 h, the mice are inoculated intraperitoneal (IP) with 0.5 ml of pertussis toxin (400 ng). Seven days later, the mice are further challenged with an additional injection of MOG35-55 peptide in CFA injected into the right para-lumbar region.
Mice are treated with SC injection of 200 (μg glatiramer acetate (Copaxone®) per animal in mannitol 4% emulsion on day 0. Part of the animals are continued to be treated with Zn-DFO as IP injections, 2 mg/kg or 6 mg/kg, thrice a week till the end of the experiment (Day 28). Two additional groups of mice are treated with Zn-DFO analogously, but without the preceding injection with glatiramer acetate. The severity of the disease is assessed using the scale shown in Table 2 (Bittner et al. 2014).

[4] abbreviates: 90 min after IP injection of 250 mg/kg.
[5] abbreviates: 90 min after IP injection of 500 mg/kg.
Setting [6] is: 90 min after IP injection of 1000 mg/kg.

Take `CC(=O)N(O)CCCCCNC(=O)CCC(=O)N(O)CCCCCNC(=O)CCC(=O)N(O)CCCCCN` [DFO, N′-[5-(acetyl-hydroxy-amino)pentyl]-N-[5-[3-(5-aminopentyl-hydroxy-carbamoyl)propanoylamino]pentyl]-N-hydroxy-butane diamide]: the “fraction of DFO that infiltrated the brain” value was <0.0015% in series [1] (IP 250 mg/kg), <0.0015% in series [1] (IP 500 mg/kg) and 0.002% in series [1] (IP 1000 mg/kg). The “DFO (mg/g organ)” value in series [1] (setting [4]) is listed as <0.005 mg/g organ; in series [1] (setting [5]), <0.005 mg/g organ; in series [1] (setting [6]), 0.008 ± 0.004 mg/g organ. Moreover, the “fraction of DFO that had infiltrated into the brain” value in series [1] (corresponding doses (250, 500, 1000 mg/kg IP), limited sensitivity of the instrument) is ≤ 0.002%. In addition, the “DFO (mg/whole organ)” value in series [1] (setting [4]) was <0.005 mg/whole organ; in series [1] (setting [5]) it was <0.005 mg/whole organ; in series [1] (setting [6]) it was 0.019 ± 0.008 mg/whole organ. Also, in series [2], the “rats' behavior after injection” value was “no changes in rats' behavior”.

Consider glatiramer acetate, for which the “effect on the main outcome measures in MS (disease progression)” value in the series with MS (La Mantia et al., 2010) is given as “did not show any beneficial effect”. Further, the reduction of relapses result in the series with MS (relapsing-remitting MS, Hassan-Smith et al., 2011) is “approximately 30%”. In series [3], the “day on which peak clinical score is reached” value was 17 days and the “onset of the disease” value was found to be 14 days.
